System: isolated stratum corneum (SC)
Assay: Evaluation of the moisturizing potential on isolated stratum corneum by measurement with a Corneometer
Settings: for Mean DHCMiactive agent corr: 5% by weight in water/n-propanol (80/20), 5 μl/cm2 on SC, T4h vs T0h, 75% relative humidity, 25° C., relative percentage with carrier control 0% and glycerol 100%; for dielectric capacitance of the stratum corneum (SC): compounds at 5% by weight
Procedure: B): Evaluation of the Moisturizing Potential on Isolated Stratum Corneum by Measurement with a Corneometer
A test was performed to evaluate the moisturizing potential of the compounds of the invention formulated in an aqueous solution to an amount of 5% by weight relative to the total weight of the composition.
The technique makes it possible to measure the dielectric capacitance of the stratum corneum (SC), which depends on the mean dielectric permittivity value of the tissue. The dielectric permittivity varies greatly with the amount of water contained in the SC.
The SC samples are conditioned at 75% relative humidity and at 25° C. before/during the measurements and the treatment. The capacitance measurement is performed using a Corneometer™ (Courage & Khazaka, Germany).
The compound tested, compounds 1, 2 and 3 according to the invention or a moisturizing active agent such as glycerol (humectant positive control), is dissolved in a water/n-propanol mixture (80/20) and the solution is deposited onto the SC at a rate of 5 μl/cm^2 followed by air-drying for a total duration of 4 h.
A measurement is taken at T0h, before the treatment, and a measurement T4h is taken after total drying of the treatment.
The variation in the level of moisturization between T0h and T4h is calculated for each condition tested and compared to the references (carrier control and positive control) and to its T0h. The experiments are carried out on at least two different batches of SC and three samples of SC per condition tested.
The variation in the corneometer signal (HCM) after treatment is calculated for each SC sample: DHCMi=HCMi(T4h)−HCMi(T0h).
The results are then expressed as relative percentage in relation to the references, the carrier control and the glycerol positive control corresponding to a level of 0% and 100%, respectively.
Thus, for each experiment, the following are measured: • For the carrier control: DHCMicarrier=HCMicarrier(T4h)−HCMicarrier(T0h) • For the positive control: DHCMiglycerol=HCMiglycerol(T4h)−HCMiglycerol(T0h) • For the active agent: DHCMiactive agent=HCMiactive agent(T4h)−HCMiactive agent(T0h) • % DHCMiactive agent=(DHCMiactive agent−DHCMicarrier)/((DHCMiglycerol−DHCMicarrier) • As specified above, according to this mode of calculation: • % DHCMicarrier=0% • % DHCMiglycerol=100%
The moisturizing potential of an active agent is therefore determined as relative percentage in relation to the positive control.

| SMILES | Mean DHCMiactive agent corr [%] | dielectric capacitance of the stratum corneum (SC) in comparison with glycerol at the same concentration (in words, 5% by weight) | dielectric capacitance of the stratum corneum (SC) (in words) |
| --- | --- | --- | --- |
| O=C1N=C(O)C(C2O[C@H](CO)[C@@H](O)[C@H](O)[C@H]2O)O1 (some centres unmarked) [Compound 1] | 88 | of the same order | high |
| O=C1N=C(O)C(C2OC[C@@H](O)[C@H](O)[C@H]2O)O1 (some centres unmarked) [Compound 2] | 63 | – | high |
| CN1C(=O)OC(C2O[C@H](CO)[C@@H](O)[C@H](O)[C@H]2O)C1=O (some centres unmarked) [Compound 3] | 51 | – | high |
| OCC(O)CO [Glycerol, glycerol, reference compound] | 100 | – | – |

Reference: US11420960B2, “Use of 5-oxazolidine-2,4-dione C-glycoside derivatives as moisturizer for the skin” (L'OREAL, priority 2018, dated 2022)
